According to patent US20250108038A1 (priority 2023, published 2025):

Tests used:
[1] = Metabolic stability in human intestinal homogenate; assay type: in vitro ADME
Protocol: The intestinal homogenate mixture solution was added to 96-well plates ([…]) in duplicate. […] Reaction was initiated by adding cofactor solution at 10 μL/well.
The intrinsic clearances were calculated using the following equations: […]

[2] = Stability in components of rat blood; assay type: in vitro ADME; settings: 0.5 mM, 37° C., 0-120 min
Protocol: FIG. 5A. […] Compound I-19 in components of rat blood. Red blood cells and plasma were isolated from whole blood. […] Values represent mean+SEM of n=3 separate experiments.
FIG. 5B. Stability of Compound I-4 in components of rat blood. Red blood cells and plasma were isolated from whole blood. […] Values represent mean+SEM of n=3 separate experiments.
Human and rat blood were centrifuged to separate out red blood cells at 1174×g for 15 min. The upper plasma level was aspirated with a micropipette and placed in a bleach solution for disposal. The RBC pellet was resuspended in sterile isotonic saline. The pellet was gently resuspended by rocking the tube. The sample was then centrifuged again to collect the RBC pellet and then resuspended and washed one more time following the same procedure. A total of three was done. Following the last wash and centrifugation, the RBCs were resuspended with PBS; and mixed by inversion. Aliquots of the resuspended and washed RBCs were then placed into 4 reaction tubes. These tubes were centrifuged to collect the RBCs. The fluid level was marked on each tube, then the supernatant was aspirated off and the cells resuspended with room temperature PBS pH 7.4 to the original mark. An aliquot of the RBC suspension was added to four sterile tubes containing PBS pH 7.4 at room temperature.
The stability of test articles in whole blood, red blood cells only, and plasma was done to determine stability in each blood compartment. 50 μL of test article was placed in each blood matrix. The final volume was 1 mL (0.5 mM). […] LCMSMS of parent compound was used to determine stability.

[3] = 1 μM, 0.5 mg/mL homogenate, 1 mM NADPH
[4] = 1 μM, NCF60 (60 min, no cofactors)

## COCCOC1(c2ccc(Cl)cc2)c2ccccc2C2=NCCN21 (centres unmarked) [Compound I-4]
[1]; 0 min
  Compound A formed (Aa/Ai): 0.46
[1]; 1 μM, 0 min
  % Remaining: 100%
  Aa/Ai Mean (n = 2): 1.34
[1]; [3]
  CLint(HIH): 8.40 µL/min/mg
  T1/2: 165 min
[1]; 1 μM, 5 min
  % Remaining: 97.6%
  Aa/Ai Mean (n = 2): 1.31
[1]; 1 μM, 10 min
  % Remaining: 87.3%
  Aa/Ai Mean (n = 2): 1.17
[1]; 1 μM, 20 min
  % Remaining: 88.0%
  Aa/Ai Mean (n = 2): 1.18
[1]; 1 μM, 30 min
  % Remaining: 87.4%
  Aa/Ai Mean (n = 2): 1.17
[1]; 1 μM, 60 min
  % Remaining: 75.8%
  Aa/Ai Mean (n = 2): 1.01
[1]; [4]
  % Remaining: 80.4%
  Aa/Ai Mean (n = 2): 1.08
[1]; 5 min
  Compound A formed (Aa/Ai): 0.54
[1]; 10 min
  Compound A formed (Aa/Ai): 0.50
[1]; 20 min
  Compound A formed (Aa/Ai): 0.51
[1]; 30 min
  Compound A formed (Aa/Ai): 0.58
[1]; 60 min
  Compound A formed (Aa/Ai): 0.50
[1]; NCF60 (60 min, no cofactors)
  Compound A formed (Aa/Ai): 0.69
[2]; rat plasma
  % parent compound remaining: no significant change in the amount of parent compound
[2]; rat red blood cells
  % parent compound remaining: small time-dependent decrease in the amount of parent compound remaining
[2]; rat whole blood
  % parent compound remaining: small time-dependent decrease in the amount of parent compound remaining
